The test system of experiment [1] is Plasmodium berghei. The experiment is described as follows: Antimalarial activity against Plasmodium berghei NK-65 infected in ICR mouse assessed as parasitemia at 50 mg/kg, po administered 4 days post-infection measured after 18 hrs (reference value: 30 to 40%). Type of experiment: functional.
Experiment [2] has as its system Plasmodium berghei. The experiment in a line: Down regulation of heat shock protein (gi68071723) in Plasmodium berghei NK-65 infected in ICR mouse at 50 mg/kg, po administered 4 days post-infection measured after 18 hrs in the host blood by 2D-gel electrophoresis. Also on record: dose 50 mg/kg. Type of experiment: functional, organism-based.
Experiment [3] has as its system Mus musculus. The experiment is described as follows: Down regulation of beta-actin in ICR mouse infected with Plasmodium berghei NK-65 at 50 mg/kg, po administered 4 days post-infection measured after 18 hrs in host blood by 2D-gel electrophoresis. Type of experiment: functional, organism-based. Also on record: dose 50 mg/kg.
The test system of experiment [4] is Plasmodium berghei. The experiment in a line: Down regulation of […] precursor in Plasmodium berghei NK-65 infected in ICR mouse at 50 mg/kg, po administered 4 days post-infection measured after 18 hrs in the host blood by 2D-gel electrophoresis. Type of experiment: functional, organism-based. Details: dose 50 mg/kg.
Experiment [5] concerns Plasmodium berghei. The experiment in a line: Down regulation of berghepain-2 in Plasmodium berghei NK-65 infected in ICR mouse at 50 mg/kg, po administered 4 days post-infection measured after 18 hrs in the host blood by 2D-gel electrophoresis. Type of experiment: functional, organism-based. Details: dose 50 mg/kg.
Experiment [6] has as its system Plasmodium berghei. The experiment in a line: Down regulation of hypothetical protein (gi68067763) in Plasmodium berghei NK-65 infected in ICR mouse at 50 mg/kg, po administered 4 days post-infection measured after 18 hrs in the host blood by 2D-gel electrophoresis. Type of experiment: functional, organism-based. Details: dose 50 mg/kg.
Experiment [7] relates to Plasmodium berghei. The experiment is described as follows: Down regulation of hypothetical protein (gi68064486) in Plasmodium berghei NK-65 infected in ICR mouse at 50 mg/kg, po administered 4 days post-infection measured after 18 hrs in the host blood by 2D-gel electrophoresis. Type of experiment: functional, organism-based. Also on record: dose 50 mg/kg.
Experiment [8] has as its system Mus musculus. The experiment is described as follows: Up regulation of unnamed protein product (gi74220592) in ICR mouse infected with Plasmodium berghei NK-65 at 50 mg/kg, po administered 4 days post-infection measured after 18 hrs in host blood by 2D-gel electrophoresis. Type of experiment: functional, organism-based. Also on record: dose 50 mg/kg.
Experiment [9] relates to Mus musculus. The experiment is described as follows: Up regulation of unnamed protein product (gi74005074) in ICR mouse infected with Plasmodium berghei NK-65 at 50 mg/kg, po administered 4 days post-infection measured after 18 hrs in host blood by 2D-gel electrophoresis. Type of experiment: functional, organism-based. Also on record: dose 50 mg/kg.

Active and inactive are the calls of the source. No cut-off for these calls is given here.

Consider `CCN(CC)c1ccc2nc3c4ccccc4/c(=N/c4ccncc4)cc-3oc2c1.Cl`, for which the Activity in the experiment with Plasmodium berghei [1] is listed as 20%. Besides, the result in the experiment with Plasmodium berghei [2], in the experiment on Mus musculus [3], in the experiment with Plasmodium berghei [4], in the experiment with Plasmodium berghei [5], with Plasmodium berghei [6] and in the experiment on Plasmodium berghei [7] was Active. Also, the result with Mus musculus [8] and in the experiment with Mus musculus [9] was Active.
